Test results from patent US20150322051A1, “Macrocyclic picolinamides as fungicides” (Dow AgroSciences LLC, priority 2014, published 2015).
Where two headings read alike, the source gives them in different places.

How the values were obtained:
[1] = system: Mycosphaerella graminicola; anamorph: Septoria tritici (SEPTTR); test: Leaf blotch of wheat (SEPTTR) whole-plant fungicidal test; format: in vivo; conditions: Zymoseptoria tritici, topical; for pest or weed control at 100 ppm: high volume application; for pest or weed control at 121.5 g/ha: low volume (track spray) application, 121.5 g/H
[2] = system: Puccinia triticina; synonym: Puccinia recondita f. sp. tritici (PUCCRT); test: Wheat brown rust (PUCCRT) whole-plant fungicidal test; format: in vivo; conditions: topical; for pest or weed control at 100 ppm: high volume application; for pest or weed control at 121.5 g/ha: low volume (track spray) application, 121.5 g/H
[3] = 24 h, 1 Day Protectant, read-out: High Volume activity at 100 ppm SEPTTR 1DP (% disease control rating)
[4] = 72 h, 3 Day Curative, read-out: High Volume activity at 100 ppm SEPTTR 3DC (% disease control rating)
[5] = 24 h, 1 Day Protectant, read-out: High Volume activity at 100 ppm PUCCRT 1DP (% disease control rating)
[6] = 72 h, 3 Day Curative, read-out: High Volume activity at 100 ppm PUCCRT 3DC (% disease control rating)
[7] = 24 h, 1 Day Protectant, read-out: Low Volume activity at 121.5 g/H SEPTTR 1DP (% disease control rating)
[8] = 72 h, 3 Day Curative, read-out: Low Volume activity at 121.5 g/H SEPTTR 3DC (% disease control rating)
[9] = 24 h, 1 Day Protectant, read-out: Low Volume activity at 121.5 g/H PUCCRT 1DP (% disease control rating)
[10] = 72 h, 3 Day Curative, read-out: Low Volume activity at 121.5 g/H PUCCRT 3DC (% disease control rating)

Structure (SMILES): C[C@@H]1OC(=O)[C@@H](N)CCC[C@H](CCCc2ccccc2)[C@H]1Cc1ccc(OC(F)(F)F)cc1.Cl
- melting point: 227 to 232 °C

Structure (SMILES): C[C@@H]1OC(=O)[C@@H](NC(=O)OC(C)(C)C)CCC[C@H](Cc2ccc(C(F)(F)F)cc2)[C@H]1Cc1ccc(OC(F)(F)F)cc1 [Compound 152]
- melting point: 65 to 67 °C

Structure (SMILES): C[C@@H]1OC(=O)[C@@H](N)CCC[C@H](Cc2ccccc2)[C@H]1Cc1ccc(OC(F)(F)F)cc1.Cl
- melting point: 196 to 198 °C

Structure (SMILES): C[C@@H]1OC(=O)[C@@H](N)CCC[C@H](Cc2ccc(C(F)(F)F)cc2)[C@H]1Cc1ccc(OC(F)(F)F)cc1.Cl
- melting point: 215 to 217 °C

Structure (SMILES): COc1ccnc(C(=O)N[C@H]2CCC[C@H](CCCc3ccccc3)[C@@H](Cc3ccc(OC(F)(F)F)cc3)[C@H](C)OC2=O)c1O [Compound 93]
- pest or weed control at 100 ppm [1, 3]: < 70%
- pest or weed control at 100 ppm [1, 4]: < 70%
- pest or weed control at 100 ppm [2, 5]: < 70%
- pest or weed control at 100 ppm [2, 6]: < 70%
- melting point: 49 to 53 °C

Structure (SMILES): CC(C)C[C@@H]1[C@@H](Cc2ccccc2)CCC[C@H](N)C(=O)O[C@H]1C.Cl
- melting point: 221 to 224 °C

Structure (SMILES): COc1ccnc(C(=O)N[C@H]2CCC[C@H](Cc3ccc(Cl)cc3)[C@@H](Cc3ccccc3)[C@H](C)OC2=O)c1OCOC(C)=O [Compound 19]
- pest or weed control at 121.5 g/ha [1, 7]: > 70%
- pest or weed control at 121.5 g/ha [1, 8]: > 70%
- pest or weed control at 121.5 g/ha [2, 9]: > 70%
- pest or weed control at 121.5 g/ha [2, 10]: < 70%
- melting point: 98 to 100 °C

Structure (SMILES): COc1ccnc(C(=O)N[C@H]2CCC[C@H](Cc3ccccc3)[C@@H](CCc3ccccc3)[C@H](C)OC2=O)c1OCOC(=O)C(C)C [Compound 17]
- pest or weed control at 121.5 g/ha [1, 7]: > 70%
- pest or weed control at 121.5 g/ha [1, 8]: > 70%
- pest or weed control at 121.5 g/ha [2, 9]: > 70%
- pest or weed control at 121.5 g/ha [2, 10]: < 70%

Structure (SMILES): COc1ccnc(C(=O)N[C@H]2CCC[C@H](Cc3ccccc3)[C@@H](Cc3ccc(OC(F)(F)F)cc3)[C@H](C)OC2=O)c1O [Compound 97]
- pest or weed control at 100 ppm [1, 3]: > 70%
- pest or weed control at 100 ppm [1, 4]: < 70%
- pest or weed control at 100 ppm [2, 5]: > 70%
- pest or weed control at 100 ppm [2, 6]: < 70%

Structure (SMILES): COc1ccnc(C(=O)N[C@H]2CCC[C@H](Cc3ccc(Cl)cc3)[C@@H](C3CCCC3)[C@H](C)OC2=O)c1OC(C)=O [Compound 28]
- pest or weed control at 121.5 g/ha [1, 7]: > 70%
- pest or weed control at 121.5 g/ha [1, 8]: > 70%
- pest or weed control at 121.5 g/ha [2, 9]: > 70%
- pest or weed control at 121.5 g/ha [2, 10]: < 70%

Structure (SMILES): COc1ccnc(C(=O)N[C@H]2CCC[C@H](CCCc3ccccc3)[C@@H](Cc3ccc(OC(F)(F)F)cc3)[C@H](C)OC2=O)c1OC(=O)C(C)C [Compound 58, 4-methoxy-2-(((3S,7S,8R,9S)-9-methyl-2-oxo-7-(3-phenylpropyl)-8-(4-(trifluoromethoxy)benzyl)oxonan-3-yl)carbamoyl)pyridin-3-yl isobutyrate]
- pest or weed control at 121.5 g/ha [1, 7]: < 70%
- pest or weed control at 121.5 g/ha [1, 8]: < 70%
- pest or weed control at 121.5 g/ha [2, 9]: < 70%
- pest or weed control at 121.5 g/ha [2, 10]: < 70%

Structure (SMILES): COc1ccnc(C(=O)N[C@H]2CCC[C@H](Cc3ccccc3)[C@@H](c3ccccc3)[C@H](C)OC2=O)c1OCOC(C)=O [Compound 52]
- pest or weed control at 121.5 g/ha [1, 7]: > 70%
- pest or weed control at 121.5 g/ha [1, 8]: > 70%
- pest or weed control at 121.5 g/ha [2, 9]: > 70%
- pest or weed control at 121.5 g/ha [2, 10]: < 70%

Structure (SMILES): COc1ccnc(C(=O)N[C@H]2CCC[C@H](Cc3ccccc3)[C@@H](Cc3ccc(OC(F)(F)F)cc3)[C@H](C)OC2=O)c1OCOC(C)=O [Compound 68]
- pest or weed control at 121.5 g/ha [1, 7]: < 70%
- pest or weed control at 121.5 g/ha [1, 8]: < 70%
- pest or weed control at 121.5 g/ha [2, 9]: < 70%
- pest or weed control at 121.5 g/ha [2, 10]: < 70%

Structure (SMILES): CCOCC(=O)OCOc1c(OC)ccnc1C(=O)N[C@H]1CCC[C@H](Cc2ccccc2)[C@@H](Cc2ccccc2)[C@H](C)OC1=O [Compound 8, ((2-(((3S,7R,8R,9S)-7,8-dibenzyl-9-methyl-2-oxooxonan-3-yl)carbamoyl)-4-methoxypyridin-3-yl)oxy)methyl 2-ethoxyacetate]
- pest or weed control at 121.5 g/ha [1, 7]: > 70%
- pest or weed control at 121.5 g/ha [1, 8]: > 70%
- pest or weed control at 121.5 g/ha [2, 9]: > 70%
- pest or weed control at 121.5 g/ha [2, 10]: < 70%

Structure (SMILES): CCOCC(=O)OCOc1c(OC)ccnc1C(=O)N[C@H]1CCC[C@H](CCC(C)C)[C@@H](CCc2ccccc2)[C@H](C)OC1=O [Compound 35]
- pest or weed control at 121.5 g/ha [1, 7]: > 70%
- pest or weed control at 121.5 g/ha [1, 8]: > 70%
- pest or weed control at 121.5 g/ha [2, 9]: > 70%
- pest or weed control at 121.5 g/ha [2, 10]: < 70%

Structure (SMILES): COc1ccnc(C(=O)N[C@H]2CCC[C@H](Cc3ccccc3)[C@@H](C3CCCC3)[C@H](C)OC2=O)c1O [Compound 75]
- pest or weed control at 100 ppm [1, 3]: > 70%
- pest or weed control at 100 ppm [1, 4]: > 70%
- pest or weed control at 100 ppm [2, 5]: > 70%
- pest or weed control at 100 ppm [2, 6]: < 70%

Structure (SMILES): COc1ccnc(C(=O)N[C@H]2CCC[C@H](Cc3ccccc3)[C@@H](Cc3ccccc3)[C@H](C)OC2=O)c1O [Compound 74]
- pest or weed control at 100 ppm [1, 3]: > 70%
- pest or weed control at 100 ppm [1, 4]: > 70%
- pest or weed control at 100 ppm [2, 5]: > 70%
- pest or weed control at 100 ppm [2, 6]: > 70%

Structure (SMILES): COc1ccnc(C(=O)N[C@H]2CCC[C@H](CCCc3ccccc3)[C@@H](CCc3ccccc3)[C@H](C)OC2=O)c1O [Compound 85]
- pest or weed control at 100 ppm [1, 3]: > 70%
- pest or weed control at 100 ppm [1, 4]: < 70%
- pest or weed control at 100 ppm [2, 5]: > 70%
- pest or weed control at 100 ppm [2, 6]: < 70%

Structure (SMILES): COc1ccnc(C(=O)N[C@H]2CCC[C@H](Cc3ccc(Cl)cc3)[C@@H](CC(C)C)[C@H](C)OC2=O)c1OCOC(C)=O [Compound 12]
- pest or weed control at 121.5 g/ha [1, 7]: > 70%
- pest or weed control at 121.5 g/ha [1, 8]: > 70%
- pest or weed control at 121.5 g/ha [2, 9]: > 70%
- pest or weed control at 121.5 g/ha [2, 10]: < 70%

Structure (SMILES): COc1ccnc(C(=O)N[C@H]2CCC[C@H](Cc3ccccc3)[C@@H](CC(C)C)[C@H](C)OC2=O)c1OCOC(C)=O [Compound 14]
- pest or weed control at 121.5 g/ha [1, 7]: > 70%
- pest or weed control at 121.5 g/ha [1, 8]: > 70%
- pest or weed control at 121.5 g/ha [2, 9]: > 70%
- pest or weed control at 121.5 g/ha [2, 10]: < 70%
- melting point: 60 to 64 °C

Structure (SMILES): COc1ccnc(C(=O)N[C@H]2CCC[C@H](Cc3ccccc3)[C@@H](Cc3ccc(F)cc3)[C@H](C)OC2=O)c1OCOC(C)=O [Compound 63]
- pest or weed control at 121.5 g/ha [1, 7]: > 70%
- pest or weed control at 121.5 g/ha [1, 8]: > 70%
- pest or weed control at 121.5 g/ha [2, 9]: > 70%
- pest or weed control at 121.5 g/ha [2, 10]: < 70%

Structure (SMILES): COc1ccnc(C(=O)N[C@H]2CCC[C@H](CCC(C)C)[C@@H](CCc3ccccc3)[C@H](C)OC2=O)c1OC(C)=O [Compound 36]
- pest or weed control at 121.5 g/ha [1, 7]: > 70%
- pest or weed control at 121.5 g/ha [1, 8]: > 70%
- pest or weed control at 121.5 g/ha [2, 9]: > 70%
- pest or weed control at 121.5 g/ha [2, 10]: < 70%

Structure (SMILES): COc1ccnc(C(=O)N[C@H]2CCC[C@H](Cc3ccccc3)[C@@H](CC(C)C)[C@H](C)OC2=O)c1O [Compound 77]
- melting point: 73 to 76 °C

Structure (SMILES): COc1ccnc(C(=O)N[C@H]2CCC[C@H](Cc3ccccc3)[C@@H](C3CCCC3)[C@H](C)OC2=O)c1OCOC(C)=O [Compound 10]
- pest or weed control at 121.5 g/ha [1, 7]: > 70%
- pest or weed control at 121.5 g/ha [1, 8]: > 70%
- pest or weed control at 121.5 g/ha [2, 9]: > 70%
- pest or weed control at 121.5 g/ha [2, 10]: > 70%

Structure (SMILES): CCOCC(=O)OCOc1c(OC)ccnc1C(=O)N[C@H]1CCC[C@H](Cc2ccc(Cl)cc2)[C@@H](Cc2ccccc2)[C@H](C)OC1=O [Compound 20]
- pest or weed control at 121.5 g/ha [1, 7]: > 70%
- pest or weed control at 121.5 g/ha [1, 8]: < 70%
- pest or weed control at 121.5 g/ha [2, 9]: > 70%
- pest or weed control at 121.5 g/ha [2, 10]: > 70%

Structure (SMILES): COc1ccnc(C(=O)N[C@H]2CCC[C@H](Cc3ccc(C(F)(F)F)cc3)[C@@H](Cc3ccc(F)cc3)[C@H](C)OC2=O)c1OCOC(=O)C(C)C [Compound 41]
- pest or weed control at 121.5 g/ha [1, 7]: < 70%
- pest or weed control at 121.5 g/ha [1, 8]: < 70%
- pest or weed control at 121.5 g/ha [2, 9]: < 70%
- pest or weed control at 121.5 g/ha [2, 10]: < 70%

Structure (SMILES): COc1ccnc(C(=O)N[C@H]2CCC[C@H](CC3CC3)[C@@H](Cc3ccccc3)[C@H](C)OC2=O)c1OC(C)=O [Compound 60]
- pest or weed control at 121.5 g/ha [1, 7]: > 70%
- pest or weed control at 121.5 g/ha [1, 8]: > 70%
- pest or weed control at 121.5 g/ha [2, 9]: > 70%
- pest or weed control at 121.5 g/ha [2, 10]: > 70%
